# Patent US8178497B2, “Method of treating HIV in drug resistant non plasma viral reservoirs with monomeric DAPTA” (Rapid Pharmaceuticals AG, priority 2007, dated 2012)
# Where two headings read alike, the source gives them in different places.
# Key:
# [1] = test system: SK-N-SH cells exposed to R5 HIV-1 strain BaL; test: apoptosis of differentiated SK-N-SH cells exposed to HIV-1 BaL, FACS; type: cell-based; settings: for apoptosis, share of SK-N-SH cells: day 5, 60% with HIV-1BaL alone
# Text: Finally, we exposed differentiated SK-N-SH cells to the R5 HIV-1 strain BaL, in the presence or absence of monomeric DAPTA, and assessed neuronal apoptosis. […] To compare the anti-apoptotic effect of monomeric DAPTA with other CCR5-binding molecules, we also tested the CCR5 antagonist TAK-779.
# CCR5 [2] = biological target: T1, CCR5 (Homo sapiens, UniProt P51681); test: CCR5 expression on SK-N-SH neuronal cells, 2D7 mAb staining; type: cell-based; design: CCR5 expression in these differentiated cells is limited and further reduced in the presence of DAPTA; endogenous in cells; host or cells: SK-N-SH (differentiated with retinoic acid)
# Text: To assess CCR5 expression on surface of neuronal cell lines, SK-N-SH were stained with 2D7 mAb in presence or in absence of DAPTA (at different doses) and TAK-779. SK-N-SH line has the potential of differentiating to neural cells in the presence of retinoic acid, and it has been used as a model of primary neurons.
# [3] = test system: CCR5-using HIV-1 strain, 81A; test: p24 antigen production in HIV-infected M/M (CCR5-using strain); type: cell-based
# Experimental: (§1) Viral replication and production in HIV-infected M/M treated with DAPTA was assessed 14 and 21 days after infection for p24 antigen production.
# HIV [4] = settings: main endpoint of the small trial; cited from earlier work
# HIV [5] = settings: frozen stored plasma samples; p=.037; cited from earlier work
# CCR5 [6] = biological target: T1, CCR5; test: competition between CCR5-FITC antibody and DAPTA in M/M, flow cytometry; type: cell-based; design: endogenous in cells; host or cells: human primary monocyte/macrophages (M/M)
# Text: To confirm that monomeric DAPTA binding is specific for CCR5, a competition experiment between CCR5-FITC antibody and DAPTA in M/M was done. […] Treatment with monomeric DAPTA reduced CCR % expression to 9% with 10^−12 M DAPTA, compared with 35% of mock-treated M/M (FIG. 2) (p≦0.001).
# [7] = aggregation of peptide in solution; type: physicochemical
# Text: These marginal clinical benefits were inexplicable in the context of the many successful in vitro studies and an explanation was sought. […] Therefore reduction to practice required that the non-obvious formation of multimers must be remedied for considerations of both patient safety and drug efficacy.
# HIV [8] = settings: doses as high as 10^−7 M; cited from earlier work
# [9] = test system: CXCR4-using (X4) strains, HIV-1 IIIB; test: p24 antigen production in HIV-infected M/M (CXCR4-using strain); type: cell-based; settings: M/M infected by HIV-1 IIIB; data not shown
# Experimental: as §1
# HIV-1 = settings: 18 hours postinfection, vs not-treated cells
# Experimental: Eighteen hours postinfection, genomic DNA was extracted and two-fold dilution of cell equivalents (range 1×10^6-1.25×10^5) were amplified in an inverse/nested PCR specific for a conserved gag region of the viral genome. Semi-quantitative analyses of HIV-1 DNA in M/M were performed by comparison of DNA amplification products from infected cells, standardized by PCR for β-actin, to standards of amplified U1 DNA copies and cell numbers. The UN-SCAN IT-gel software (Silk Scientific Inc.) was used to determine band densities (FIG. 3A).
# T1 sequence (P51681 whole entry): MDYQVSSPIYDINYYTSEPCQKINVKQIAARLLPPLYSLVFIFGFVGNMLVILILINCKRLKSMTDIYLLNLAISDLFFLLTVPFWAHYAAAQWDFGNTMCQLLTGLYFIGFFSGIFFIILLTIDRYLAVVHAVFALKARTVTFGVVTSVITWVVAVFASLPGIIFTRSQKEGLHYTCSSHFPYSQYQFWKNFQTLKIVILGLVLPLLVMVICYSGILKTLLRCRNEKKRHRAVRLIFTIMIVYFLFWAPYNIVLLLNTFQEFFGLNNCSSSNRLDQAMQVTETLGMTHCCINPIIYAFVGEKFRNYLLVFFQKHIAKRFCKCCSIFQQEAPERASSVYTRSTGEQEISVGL
Molecule,"inhibition of apoptosis ([1]; 1.8×10^−6 M, vs cells not treated) [%]",inhibition of CCR5 expression (CCR5 [2]; 1.8×10^−6 M),"reduction of p24 gag antigen production of control M/M cultures ([3]; HIV-1 81A, doses as low as 10^−14 M, 14 and 21 days after infection) [%]",effective dose lower than described in earlier reports (enhanced in vitro potency) ([3]; monomeric formulation vs earlier reports),"apoptosis, share of SK-N-SH cells ([1]; 10^−3M) [%]","apoptosis, share of SK-N-SH cells ([1]; 10^−12M) [%]",plasma viral load (HIV [4]),reduction in viral load (HIV [5]) [log 10],"inhibition of CCR5-binding, maximum (CCR5 [6]; 10^−12 M) [%]","CCR5 expression (CCR5+ M/M) (CCR5 [6]; 10^−12 M, mock-treated 35%) [%]","CCR5+ positive M/M (CCR5 [6]; DAPTA treated M/M, mock-treated 35%) [%]","inhibition of CCR5-binding (CCR5 [6]; overall, several DAPTA doses)",aggregation in solution [7],antiviral effects (Sodroski) (HIV [8]),effect on HIV-1 p24 antigen production [9],"inhibition of CCR5 expression (CCR5 [2]; 10^−12M, vs unexposed SK-N-SH) [%]","inhibition of CCR5 expression (CCR5 [2]; 10^−13M, vs unexposed SK-N-SH) [%]",decline of HIV-1 DNA per 2.5×10^5 cells (HIV-1; 10^−7 M) [%],decline of HIV-1 DNA per 2.5×10^5 cells (HIV-1; 10^−9 M) [%]
"Cc1ccc(-c2ccc3c(c2)C=C(C(=O)Nc2ccc(C[N+](C)(C)C4CCOCC4)cc2)CCC3)cc1.[Cl-] [TAK-779, reference compound]",30,about 61%,–,–,–,–,–,–,–,–,–,–,–,–,–,–,–,–,–
Dala1-peptide T-amide [DAPTA],–,–,~80,"100-100,000 fold",28,26,failing to reduce plasma viral load,0.54,73,9,20,about 43%,quickly formed aggreagates in solution,failed to find antiviral effects,no effect,72,68.5,64,70
